Assay results: US20210238139A1, “MODULATORS OF TRYPTOPHAN CATABOLISM” (E-Therapeutics PLC, priority 2018, published 2021)
pIC50: −log10 of the molar value. Several values for one entry are separate records, joined by “and”; a condition that tells them apart may be missing. Equal values may be shown once.

What was measured:
[1] = molecular target: T1, TDO2 enzyme (Homo sapiens, UniProt P48775); test: TDO2 enzyme inhibition assay (hTDO2 assay kit, NFK-green); conditions: TDO2 enzyme 50 nM, tryptophan 200 μM, top concentration 30 μM; read-out: TDO2 Biochemical assay IC50
T1 construct: purchased Netherlands Translational Research Center B.V. NTRC-hTDO-1K
Procedure: The effect of compounds on TDO2 enzymatic activity was assess by use of an hTDO2 assay kit (Netherlands Translational Research Center B.V., Cat #NTRC-hTDO-1K). TDO2 enzyme and tryptophan substrate are diluted in assay buffer. Compounds are tested at 8 consecutive 3-fold dilutions starting from 30 μM. 267 nL of compound is added per well of a 384-well plate followed by addition of 10 μL of assay buffer. TDO2 enzyme is added at a final concentration of 50 nM and pre-incubated for 60 min at room temperature in the dark. Tryptophan substrate solution is then added at final concentration of 200 μM to all wells and the plate incubated for 15 min at RT in the dark. Finally NFK-green reagent is added at ⅕ of total reaction volume and incubated for 4 h at RT in the dark. After incubation fluorescence is measured at Ex405 nm-Em535 nm using EnVision plate reader.
(§1) IC50 values are determined using GraphPad Prism software 5.04 for Windows by plotting percent of inhibition against log 10 concentrations of compounds using a four-parametric sigmoidal curve with a variable slope.

[2] = test system: SK-OV-3 cells; test: Effect of compounds on tryptophan catabolism in SK-OV-3 cell line (inhibition of kynurenine production, LC-MS/MS); format: cell-based; conditions: Homo sapiens, SK-OV-3, 24 h, SK-OV-3 cell line, 24 h incubation, kynurenine in supernatant by LC-MS/MS; read-out: IC50 Ranges (ic50 values for inhibition of Kynurenine production)
In short: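 Kynurenine in supernatants quantified by LC-MS/MS after 24 h compound exposure (37 °C; top 30 μM, eight 3-fold steps, duplicate) in DMEM F-12 containing 6 mg/mL L-tryptophan. Cells pre-plated overnight in McCoy's 5A with 10% FBS. Viability checked in parallel by ATP luminescence.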

[3] = molecular target: T2, IDO1 enzyme (Homo sapiens, UniProt P14902); test: IDO1 enzyme inhibition assay (hIDO assay kit, NFK-green); conditions: IDO1 enzyme 25 nM, tryptophan 100 μM, top concentration 30 μM; read-out: IDO1 Biochemical assay IC50
T2 construct: purchased Netherlands Translational Research Center B.V. NTRC-hIDO-1K
Procedure: The effect of compounds on IDO1 enzymatic activity was assessed by use of a hIDO assay kit (Netherlands Translational Research Center B.V., Cat #NTRC-hIDO-1K). IDO1 enzyme and tryptophan substrate are diluted in assay buffer. Compounds are tested at 8 consecutive 3-fold dilutions starting from 30 μM. 267 nL of compound is added per well of a 384-well plate followed by addition of 10 μL of assay buffer. IDO1 enzyme is added at a final concentration of 25 nM and pre-incubated for 30 min at room temperature in the dark. Tryptophan substrate solution is then added at final concentration of 100 μM to all wells and the plate incubated for 60 min at RT in the dark. Finally NFK-green reagent is added at ⅕ of total reaction volume and incubated for 4 h at RT in the dark. After incubation fluorescence is measured at Ex405 nm-Em535 nm using EnVision plate reader.
as §1

[4] = test system: monocyte-derived dendritic cells; test: Effect of compounds on tryptophan catabolism in monocyte-derived dendritic cells (kynurenine production); format: cell-based; conditions: Homo sapiens, Dendritic cell; dendritic cells triggered with LPS and IFNγ, 24 h with compound
Procedure: (§2) Peripheral blood mononuclear cells are isolated from buffy coats from healthy volunteers by Lymphoprep density gradient centrifugation, followed by lysis of residual erythrocytes with isotonic buffer solution of ammonium chloride. CD14+ cells are isolated by positive selection using MACS® technology and CD14 MicroBeads (Miltenyi Biotec) according to manufacturer's instructions. The isolated monocytes are differentiated into dendritic cells by incubation for 5 days in RPMI-1640 medium supplemented with 10% fetal bovine serum (FBS), 50 ng/mL GM-CSF and 35 ng/mL IL-4. After 5 days the DCs are seeded in 96-well plates in DMEM supplemented with 10% charcoal stripped FBS, GM-CSF and IL-4. The following day cells are triggered with LPS and IFNγ. After 24 h of incubation medium is replaced with DMEM F-12 medium supplemented with 6 mg/mL L-tryptophan and 10% charcoal stripped FBS. Compounds are added to the cells and incubated for 24 h at 37° C., 5% CO2, 95% humidity. Compounds are tested at 7 consecutive 4-fold dilutions starting from 30 μM in duplicate.
(§3) At the end of incubation concentration of kynurenine in cell supernatants is determined by LC-MS/MS. In parallel, cell viability is assessed by measurement of ATP by use of CellTiter Glo assay (Promega) according to manufacturer's protocol.
Inhibition of Kyn production is calculated using the following formula:
(1−(Kyn conc. cmpd.−Kyn conc. medium)/(Kyn conc. medium with cells−Kyn conc. medium))·100
IC50 values are determined using GraphPad Prism software 5.04 for Windows, by plotting percent of inhibition against log 10 concentrations of compounds using a four-parametric sigmoidal curve with a variable slope.

[5] = test system: monocyte-derived dendritic cells; test: Cell viability / cytotoxicity in monocyte-derived dendritic cells (ATP, CellTiter Glo); format: cell-based, human; conditions: 24 h, unit assumed
Procedure: as §2, §3
Cell viability results are analysed in Microsoft Excel and expressed as fold change over untreated control.

T1 sequence (P48775 whole entry): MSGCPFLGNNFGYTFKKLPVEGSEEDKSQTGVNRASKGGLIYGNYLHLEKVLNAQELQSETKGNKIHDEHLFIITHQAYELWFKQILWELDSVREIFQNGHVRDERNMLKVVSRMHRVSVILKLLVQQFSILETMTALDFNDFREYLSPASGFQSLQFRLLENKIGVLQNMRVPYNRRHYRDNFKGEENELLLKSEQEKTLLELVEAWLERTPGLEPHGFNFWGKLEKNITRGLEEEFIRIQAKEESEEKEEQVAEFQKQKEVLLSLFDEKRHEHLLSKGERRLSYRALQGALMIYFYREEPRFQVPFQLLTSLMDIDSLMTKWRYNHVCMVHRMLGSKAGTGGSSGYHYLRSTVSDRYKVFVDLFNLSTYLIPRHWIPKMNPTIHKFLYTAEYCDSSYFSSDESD
T2 sequence (P14902 whole entry): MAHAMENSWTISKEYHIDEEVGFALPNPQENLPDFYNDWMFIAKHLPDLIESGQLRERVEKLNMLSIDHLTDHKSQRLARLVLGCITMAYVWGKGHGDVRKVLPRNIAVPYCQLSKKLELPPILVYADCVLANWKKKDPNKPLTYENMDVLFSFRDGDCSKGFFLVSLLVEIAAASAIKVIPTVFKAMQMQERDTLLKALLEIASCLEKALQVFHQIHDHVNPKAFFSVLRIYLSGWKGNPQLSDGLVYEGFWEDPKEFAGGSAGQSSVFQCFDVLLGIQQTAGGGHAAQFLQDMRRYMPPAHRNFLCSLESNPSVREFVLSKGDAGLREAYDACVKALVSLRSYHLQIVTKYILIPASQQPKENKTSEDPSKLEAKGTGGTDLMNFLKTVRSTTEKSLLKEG

| SMILES | pIC50 [1] | pIC50 [2] | pIC50 [3] | pIC50 [4] | Cell viability at 30 uM (% of untreated control) [5] [%] |
| --- | --- | --- | --- | --- | --- |
| Cc1ccc(C(C)N(C(=O)Nc2ccc(Cl)cc2)C2CCCC2)o1 (racemic) [Compound 185, 3-(4-chlorophenyl)-1-cyclopentyl-1-[1-(5-methyl-2-furyl)ethyl]urea] | < 4.52 | > 7.00 | – | – | – |
| CCc1ccc(NC(=O)N(Cc2cccs2)C2CCCC2)cc1 [Compound 3, 1-cyclopentyl-3-(4-ethylphenyl)-1-(2-thienylmethyl)urea] | < 4.52 | 6.30 to 7.00 | < 4.52 | – | – |
| CCc1ccc(NC(=O)N(Cc2ccccn2)C2CCCCC2)cc1 [Compound 21, 1-cyclohexyl-3-(4-ethylphenyl)-1-(2-pyridylmethyl)urea] | < 4.52 | 5.30 to 6.00 | – | – | – |
| Cc1ccc(CN(C(=O)NCCc2ccccc2)C2CCCC2)s1 [Compound 26, 1-cyclopentyl-1-[(5-methyl-2-thienyl)methyl]-3-(2-phenylethyl)urea] | – | > 7.00 | – | 7.00 | 19 |
| O=C(Nc1ccc(Cl)cc1)N(Cc1cccs1)C1CCCC1 [Compound 56, 3-(4-chlorophenyl)-1-cyclopentyl-1-(2-thienylmethyl)urea] | – | > 7.00 | – | 6.60 | 94 |
| O=C(Nc1ccccc1)N(Cc1ccncc1)C1CCCC1 [Compound 74, 1-cyclopentyl-3-phenyl-1-(4-pyridylmethyl)urea] | < 4.52 | < 5.30 | – | – | – |
| Cc1ccc(CN(C(=O)Nc2ccc(Cl)nc2)C2CCCC2)o1 [Compound 92, 3-(6-chloro-3-pyridyl)-1-cyclopentyl-1-[(5-methyl-2-furyl)methyl]urea] | < 4.52 | > 7.00 | – | – | – |
| Cc1ccc(CN(C(=O)Nc2ccc(F)c(O)c2)C2CCCC2)o1 [Compound 104, 1-cyclopentyl-3-(4-fluoro-3-hydroxy-phenyl)-1-[(5-methyl-2-furyl)methyl]urea] | < 4.52 | < 5.30 | – | – | – |
| Cc1ccc(CN(C(=O)Nc2ccc(C#CC(C)(C)O)cc2)C2CCCC2)o1 [Compound 109, 1-cyclopentyl-3-[4-(3-hydroxy-3-methyl-but-1-ynyl)phenyl]-1-[(5-methyl-2-furyl)methyl]urea] | 5.22 | 5.30 to 6.00 | < 4.52 | – | – |
| Cc1ccc(CN(C(=O)Nc2ccc(N3CCOCC3)cc2)C2CCCC2)o1 [Compound 123, 1-cyclopentyl-1-[(5-methyl-2-furyl)methyl]-3-(4-morpholinophenyl)urea] | < 4.52 | < 5.30 | – | – | – |
| O=C(Nc1ccc(Cl)cc1)N(Cc1cc2ccccc2o1)C1CCCC1 [Compound 130, 1-(benzofuran-2-ylmethyl)-3-(4-chlorophenyl)-1-cyclopentyl-urea] | < 4.52 | > 7.00 | – | – | – |
| Cc1ccc(CN(C(=O)Nc2ccc(C3=CCN(C(=O)OC(C)(C)C)C3)cc2)C2CCCC2)o1 [Compound 158, tert-butyl 3-[4-[[cyclopentyl-[(5-methyl-2-furyl)methyl]carbamoyl]amino]phenyl]-2,5-dihydropyrrole-1-carboxylate] | 5.19 | 6.00 to 6.30 | < 4.52 | – | – |
| N#Cc1ccc(NC(=O)N(Cc2ccc3ncsc3c2)C2CCC2)cc1 [Compound 213, 1-(1,3-benzothiazol-6-ylmethyl)-3-(4-cyanophenyl)-1-cyclobutyl-urea] | – | > 7.00 | < 4.52 | – | – |
| O=C(Nc1ccc(Cl)cc1)N(Cc1cn2ccsc2n1)C1CCC1 [Compound 269, 3-(4-chlorophenyl)-1-cyclobutyl-1-(imidazo[2,1-b]thiazol-6-ylmethyl)urea] | – | 6.30 to 7.00 | < 4.52 | – | – |
| N#Cc1ccc(NC(=O)N(Cc2cn3ccsc3n2)C2CCC2)cc1 [Compound 270, 3-(4-cyanophenyl)-1-cyclobutyl-1-(imidazo[2,1-b]thiazol-6-ylmethyl)urea] | – | 6.00 to 6.30 | < 4.52 | – | – |

More lines, main results first:

| pIC50 [1] | pIC50 [2] | pIC50 [3] | pIC50 [4] | SMILES | Cell viability at 30 uM (% of untreated control) [5] [%] |
| --- | --- | --- | --- | --- | --- |
| < 4.52 | 6.30 to 7.00 | – | – | Cc1ccc(CN(C(=O)Nc2ccc(-c3cnoc3)cc2)C2CCCC2)o1 [Compound 105, 1-cyclopentyl-3-(4-isoxazol-4-ylphenyl)-1-[(5-methyl-2-furyl)methyl]urea] | – |
| < 4.52 | 6.30 to 7.00 | – | – | Cc1ccc(CN(C(=O)Nc2ccc(C#CCN)cc2)C2CCCC2)o1 [Compound 110] | – |
| 5.32 and 5.66 | > 7.00 | < 4.52 | – | Cc1ccc(CN(C(=O)Nc2ccc(C#CCO)cc2)C2CCCC2)o1 [Compound 111, 1-cyclopentyl-3-[4-(3-hydroxyprop-1-ynyl)phenyl]-1-[(5-methyl-2-furyl)methyl]urea] | – |
| < 4.52 | > 7.00 | < 4.52 | – | CC#Cc1ccc(NC(=O)N(Cc2ccc(C)o2)C2CCCC2)cc1 [Compound 154] | – |
| < 4.52 | > 7.00 | < 4.52 | – | COCC#Cc1ccc(NC(=O)N(Cc2ccc(C)o2)C2CCCC2)cc1 [Compound 162, 1-cyclopentyl-3-[4-(3-methoxyprop-1-ynyl)phenyl]-1-[(5-methyl-2-furyl)methyl]urea] | – |
| – | < 5.30 | < 4.52 | – | Cc1ccc(CN(C(=O)Nc2ccc(C#N)cc2)c2ccnn2C)o1 [Compound 215, 3-(4-cyanophenyl)-1-[(5-methyl-2-furyl)methyl]-1-(2-methylpyrazol-3-yl)urea] | – |
| – | < 5.30 | < 4.52 | – | Cc1ccc(CN(C(=O)Nc2ccc(Cl)cc2)c2ccnn2C)o1 [Compound 220, 3-(4-chlorophenyl)-1-[(5-methyl-2-furyl)methyl]-1-(2-methylpyrazol-3-yl)urea] | – |
| – | > 7.00 | < 4.52 | – | Cc1ccc(CN(C(=O)Nc2ccc(Cl)cc2)c2cnoc2C)o1 [Compound 256, 3-(4-chlorophenyl)-1-[(5-methyl-2-furyl)methyl]-1-(5-methylisoxazol-4-yl)urea] | – |
| – | > 7.00 | < 4.52 | – | Cc1ccc(CN(C(=O)Nc2ccc(C#N)cc2)c2cnoc2C)o1 [Compound 257, 3-(4-cyanophenyl)-1-[(5-methyl-2-furyl)methyl]-1-(5-methylisoxazol-4-yl)urea] | – |
| – | 5.30 to 6.00 | < 4.52 | – | Cn1nccc1N(Cc1ccc2ncsc2c1)C(=O)Nc1ccc(C#N)cc1 [Compound 276, 1-(1,3-benzothiazol-6-ylmethyl)-3-(4-cyanophenyl)-1-(2-methyl-iH-pyrazol-3-yl) urea] | – |
| – | > 7.00 | < 4.52 | – | Cc1ccc(CN(C(=O)Nc2ccc(Cl)cc2)c2conc2C)o1 [Compound 277, 3-(4-chlorophenyl)-1-[(5-methyl-2-furyl)methyl]-1-(3-methylisoxazol-4-yl)urea] | – |
| – | > 7.00 | < 4.52 | – | COCC#Cc1ccc(NC(=O)N(Cc2ccc(C)o2)c2cnoc2C)cc1 [Compound 279, 3-[4-(3-methoxyprop-1-ynyl)phenyl]-1-[(5-methyl-2-furyl)methyl]-1-(5-methylisoxazol-4-yl)urea] | – |
